Usually inhibition stands for the relative decrease from the control value, in per cent. A high value points to strong suppression.

Converted amounts (≈) assume the structure as drawn. Bounds are passed on as bounds.

The values that follow come from US6777564B2, “Anthraquinone compound” (Industrial Technology Research Institute, priority 2001, dated 2004).

Series [1] relates to KB: human oral epidormaid Carcinama cell. In words: anti-cancer activity test (cytotoxicity), KB. Format: cell-based. Conditions: Homo sapiens; KB cells. The protocol: (§1) The compounds were further screened on 60 human cancer cell lines by Developmental Therapeutics Program Human Tumor Cell Line Screen set up by the National Cancer Institute of the U. S. A. The screening procedures are described briefly hereinafter. Cell suspensions that were diluted according to the particular cell type and the expected target cell density (5000-40,000 cells per well based on cell growth characteristics) were added by pipet (100 μL) into 96-well microtiterplates. Inoculates were allowed a preincubation period of 24 hours at 37° C. for stabilization. Dilutions at twice the intended test concentration were added in 100 μL aliquots to the microtiter plate wells at time zero. Usually, test compounds were evaluated at five 10-fold dilutions. In routine testing, the highest well concentration was 10^−4 M, but for the standard agents the highest well concentration used depended on the agent. Incubations lasted for 48 hours in 5% CO2 atmosphere and 100% humidity. The cells were assayed by using the sulforhodamine B assay. A plate reader was used to read the optical densities, and a microcomputer processed the optical densities into the special concentration parameters. The results of these tests with representative compounds of the present invention appear in Table 1 and 2

For series [2], the system named is Lu1: human lung cell. Kind of series: anti-cancer activity test (cytotoxicity), Lu1. To be noted: Homo sapiens; Lu1 cells. Format: cell-based.
Series [3] has as its system P-388: mouse lymphaid Macrophage cell. In words: anti-cancer activity test (cytotoxicity), P-388. Conditions: Mus musculus, P388; P-388 cells. In kind it is cell-based.
Series [4] deals with HT-1088: human fibrosarcoma cell. In words: anti-cancer activity test (cytotoxicity), HT. Format: cell-based. Conditions: Homo sapiens; HT cells.
Series [5] has as its system Col2: human colon cell. In words: anti-cancer activity test (cytotoxicity), Col2. Format: cell-based. To be noted: Homo sapiens; Col2 cells.
For series [6], the system named is ZR-75-1: human breast cell. In words: anti-cancer activity test (cytotoxicity), ZR-75-1. In kind it is cell-based. To be noted: Homo sapiens; ZR-75-1 cells.
The test system of series [7] is Mel2: human melanoma cell. In words: anti-cancer activity test (cytotoxicity), Mel2. In kind it is cell-based. Conditions: Homo sapiens; Mel2 cells.
Series [8] deals with BC-1: human breast cell. Kind of series: anti-cancer activity test (cytotoxicity), BC 1. In kind it is cell-based. To be noted: Homo sapiens, BC1; BC 1 cells.
Series [9] concerns the target T1, HIV-1 RT(p66) (Human immunodeficiency virus type 1 group M subtype B, UniProt P04585).
T1 construct: 1-10 at 200 μg/ml to HIV-1 RT(p66)
In words: anti-virus activity test, HIV-1 RT(p66) inhibition. Format: biochemical. Conditions: for inhibition at 200 µg/mL: at 200 μg/ml.

Series [10] relates to LNCaP: human prostate cell. In words: anti-cancer activity test (cytotoxicity), LNCaP. In kind it is cell-based. Conditions: Homo sapiens; LNCaP cells.
For series [11], the system named is KB-V: drug resisteant KB cell. Kind of series: anti-cancer activity test (cytotoxicity), KB-V. In kind it is cell-based, human. Conditions: Homo sapiens, KB-V cells.
Series [12] relates to A431: human squamous cell. In words: anti-cancer activity test (cytotoxicity), A431. Format: cell-based. Conditions: Homo sapiens, A-431; A431 cells.
The subject of series [13] is human cancer cell lines. In words: anti-cancer activity test, overall over the cell line panel. In kind it is cell-based. To be noted: summary of Table 1. The protocol: as §1
The subject of series [14] is U373: human glioma cell. In words: anti-cancer activity test (cytotoxicity), U373. Format: cell-based. Conditions: Homo sapiens, U373 MG; U373 cells.

Regarding `N=C(N)NCC(=O)Nc1ccc2c(c1)C(=O)c1ccc(NC(=O)CNC(=N)N)cc1C2=O` [Example 8, 2,6-di(guanidinoacetamido)anthraquinone], the IC50 in series [1] is 1.4 µg/mL (≈ 3.21 µM); in series [2], 12.2 µg/mL (≈ 28 µM); in series [3] it was more than 5 µg/mL; in series [4], 6 µg/mL (≈ 13.7 µM); in series [5], 3.3 µg/mL (≈ 7.56 µM); in series [6], 7 µg/mL (≈ 16 µM). In addition, the IC50 in series [7] is 12.7 µg/mL (≈ 29.1 µM); in series [8], 5 µg/mL (≈ 11.5 µM); in series [10], 7.2 µg/mL (≈ 16.5 µM); in [11] (with vinblastine (+VLB)), more than 20 µg/mL; in series [11] (without vinblastine (−VLB)), more than 20 µg/mL; in series [12], 5.8 µg/mL (≈ 13.3 µM). The same molecule returned an IC50 in series [14] of 8.6 µg/mL (≈ 19.7 µM). Testing at 200 µg/mL in series [9] (HIV-1 RT(p66)) gave an inhibition of 29.3%. Besides, the “cytotoxic activity to cancer cell lines (in words)” value in series [13] is “more effective to most cancer cell lines”.
Regarding `N=C(N)NCC(=O)Nc1ccc2c(c1NC(=O)CNC(=N)N)C(=O)c1ccccc1C2=O` [Example 10, 1,2-di(guanidinoacetamido)anthraquinone], the IC50 is 3.2 µg/mL (≈ 7.33 µM) in series [1]; more than 20 µg/mL in [2]; more than 5 µg/mL in series [3]; 8.9 µg/mL (≈ 20.4 µM) in series [4]; more than 20 µg/mL in [5]; more than 20 µg/mL in [6]. Also, the IC50 in series [7] was more than 20 µg/mL; in [8], 10.2 µg/mL (≈ 23.4 µM); in [9] (HIV-1 RT(p66), read-out: IC50 (μg/ml) (converted)) it was 69.4 µM; in [10], 18 µg/mL (≈ 41.2 µM); in [11] (with vinblastine (+VLB)) it was 6.3 µg/mL (≈ 14.4 µM); in series [11] (without vinblastine (−VLB)), more than 20 µg/mL. Besides, the IC50 in series [12] was 1.7 µg/mL (≈ 3.9 µM); in series [14] it was 6.9 µg/mL (≈ 15.8 µM). In series [9] (HIV-1 RT(p66)), the inhibition at 200 µg/mL was 92.3%. Besides, the “activity inhibition / anti-virus ability (in words)” value in series [9] (at the concentration of 200 μg/ml) was “excellent effect on activity inhibition”. For the same molecule, the “cytotoxic activity to cancer cell lines (in words)” value in series [13] is given as “more effective to most cancer cell lines”.
